Results on one compound are retold here after patent US20250281497A1, “FUSED AMINO PYRIMIDINE COMPOUNDS FOR TREATMENT OF SEIZURE DISORDERS” (Ovid Therapeutics Inc., priority 2024, published 2025).

One assay deals with hippocampal neurons. As to the kind of experiment: Gramicidin perforated patch clamp, EGABA in hippocampal neurons. Format: cell-based, Sprague Dawley. To be noted: 300 nM. The protocol: Neuronal Cultures. Hippocampal neurons were prepared from Sprague Dawley E18 embryos and plated at 450,000 per dish and maintained at 37° C. in a humidified 5% CO2 incubator for 10-25 days before experimentation (Lee et al., Nat. Neurosci. 14, 736-743 (2011)).
At this developmental stage, GABAAR receptor activation leads to hyperpolarization, a phenomenon critically dependent upon KCC2 (Kontou et al., J Biol Chem, 100364 (2021)).
Neuronal Patch clamp assays. Neuronal cell culture recordings were performed in bath saline at 34° C. For gramicidin perforated-patch experiments, pipettes contained (in mM): 140 KCl and 10 HEPES, pH 7.4 KOH. For whole-cell experiments, pipettes contained (in mM): 115 K-meth-SO^4, 30 KCl, 2 Mg-ATP, 4 Na-ATP, 0.4 Na-GTP, and 10 HEPES, pH 7.4 KOH. Bath saline contained the following (in mM): 140 NaCl, 2.5 KCl, 2.5 CaCl2, 2.5 MgCl2, 10 HEPES, and 11 glucose, pH 7.4 NaOH (Kontou et at, 2021, supra). All compound solutions were applied to cells using a three-barreled 700 μm pipe positioned just above the cell (Warner Instruments). […] All voltages from whole-cell experiments were corrected offline using a calculated liquid junction potential value (13.6 mV) in Clampex (Molecular Devices). For gramicidin perforated-patch experiments, intracellular Cl^− values were back-calculated using measured EGABA values and the Nernst equation: […]
A general note: Patch clamp records ionic current or voltage across a cell membrane.

The target in the next assay is T1, KCC2-S940A (Homo sapiens, UniProt Q9H2X9, S963A).
T1 construct: expressed in transfected cells; host or cells: HEK-293
T1 sequence (Q9H2X9 1-1116 isoform Q9H2X9-2 S940A): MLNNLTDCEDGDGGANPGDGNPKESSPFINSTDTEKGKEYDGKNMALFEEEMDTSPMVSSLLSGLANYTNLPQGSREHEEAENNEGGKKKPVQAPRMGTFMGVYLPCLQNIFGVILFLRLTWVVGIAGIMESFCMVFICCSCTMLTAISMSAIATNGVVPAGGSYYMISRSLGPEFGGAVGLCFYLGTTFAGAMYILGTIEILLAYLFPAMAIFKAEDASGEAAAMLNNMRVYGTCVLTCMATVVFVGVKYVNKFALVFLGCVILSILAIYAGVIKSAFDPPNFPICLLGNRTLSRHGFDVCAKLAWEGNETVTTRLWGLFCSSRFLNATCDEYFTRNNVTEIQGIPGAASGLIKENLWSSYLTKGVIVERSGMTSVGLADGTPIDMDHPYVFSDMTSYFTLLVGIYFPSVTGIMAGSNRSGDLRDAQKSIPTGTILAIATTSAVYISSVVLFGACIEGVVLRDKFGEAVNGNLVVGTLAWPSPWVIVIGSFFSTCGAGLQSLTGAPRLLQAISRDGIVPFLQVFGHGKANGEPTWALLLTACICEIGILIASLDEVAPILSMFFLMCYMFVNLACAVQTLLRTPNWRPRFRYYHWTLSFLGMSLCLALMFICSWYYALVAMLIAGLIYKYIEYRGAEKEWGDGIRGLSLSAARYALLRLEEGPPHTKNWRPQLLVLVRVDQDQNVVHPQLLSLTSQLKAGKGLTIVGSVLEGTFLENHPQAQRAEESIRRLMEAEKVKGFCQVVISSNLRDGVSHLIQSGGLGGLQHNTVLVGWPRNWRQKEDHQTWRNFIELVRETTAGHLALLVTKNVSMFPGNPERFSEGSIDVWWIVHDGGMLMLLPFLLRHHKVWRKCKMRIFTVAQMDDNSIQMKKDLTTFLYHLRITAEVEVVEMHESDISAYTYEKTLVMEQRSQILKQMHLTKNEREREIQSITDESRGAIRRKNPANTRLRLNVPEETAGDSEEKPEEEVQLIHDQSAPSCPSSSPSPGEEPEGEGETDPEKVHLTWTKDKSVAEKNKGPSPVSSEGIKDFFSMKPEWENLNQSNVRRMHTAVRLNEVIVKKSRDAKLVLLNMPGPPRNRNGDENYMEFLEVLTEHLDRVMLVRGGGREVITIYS
Put plainly: Tl+ flux assay, KCC2-S940A construct. Format: cell-based. As to conditions: HEK-293. The procedure:
FLIPR TI Flux assay. HEK-293 cells were washed with HBSS, and then incubated with loading buffer containing TI sensitive fluorescent dye (https://www.moleculardevices.com), 20 μM bumetanide 20 μM ouabain and 2.5 mM probenecid for 1 h at room temperature (RT) under control conditions or with drugs in the dark using a FlexStation 3 microplate reader (Molecular Devices) and imaged […] for 30 min. Stimulus buffer was added containing 5 mM K^+/0.5 mM Tl^+ and cells were imaged every 1.5 over a 190 second time course The initial rate Tl^+ uptake (Relative Fluorescence Units (RFU) per second) was determined following addition of the stimulus buffer as outlined previously (Conway et at, 2017, supra) (Lee et at, 2022, supra).
Several studies have shown that the activity and plasma membrane accumulation of KCC2 is potentiated via phosphorylation of S940, a process mediated by the activity of protein kinase C and protein phosphatase 1 (Lee et al., 2011, supra; Lee et al., J Biol Chem 282, 29777-29784 (2007); Moore et al., Proc. Natl. Acad. Sci. U.S.A. 115, 10166-10171 (2018); Moore et al., Trends Neurosci. 40, 555-571 (2017); Silayeva et al., Proc. Natl. Acad. Sci. U.S.A. 112, 3523-3528 (2015)). […] Compared to KCC2, effects on KCC3, KCC4, and NKCC1 were only seen at concentrations more than 35-fold that of KCC2 (>100 μM) (FIG. 1G).

Assay [1] has as its system PTZ induced motor seizures. Put plainly: Pentylenetetrazol (PTZ) induced convulsions. To be noted: 12.5 mg/kg IV pretreatment. Format: in vivo, mice.

As to `C[C@@H]1CN(c2nc3c(c(Nc4ccc(C5CCCCC5)cc4)n2)COC3)CCO1` [Compound A, (R)—N-(4-cyclohexylphenyl)-2-(2-methylmorpholino)-5,7-dihydrofuro[3,4-d]pyrimidin-4-amine], in the assay on hippocampal neurons (15 min, from EGABA by Nernst equation), the “reduction in Cl−” value was determined as 2.2 ± 0.6 mM. Also, the “EGABA at 15 min” value in the assay with hippocampal neurons (from −75±3.1 at 0 min, bumetanide and TTX present) is −85.1±4.2 mV. Also, the “activity of KCC2-S940A construct” value on KCC2-S940A is “increased the activity”. Moreover, the “dose of PTZ required to induce forelimb clonus” value in assay [1] (Control=51.5±3.1) was determined as 56.3 ± 3.3 mg/kg. The “dose of PTZ required to induce hindlimb clonus” value in assay [1] (Control=84.5±5.1) came to 137.4 ± 7.5 mg/kg.
